SMILES strings stand for the structures.

For assay [1], the system named is primary cultured human pancreatic fibroblasts. Briefly: Expression of marker genes for fibrosing in primary cultured human pancreatic fibroblasts (quantitative real time PCR). Type of assay: cell-based. Conditions: 48 hours. The method, then: (§1) Primary cultured human renal fibroblasts (ATCC), primary cultured human lung fibroblasts (Cosmo Bio), or primary cultured human pancreatic fibroblasts (K.A.C.) were each seeded in 12-well tissue culture plates (5×10^4 cells/well) and cultured in Minimum Essential Medium (lx) (Gibco, Thermo Fisher Scientific) together with 10% FBS (Fetal Bovine Serum) and 100× antifungal antibiotic solution (Sigma-Aldrich) in a 5% CO2 humidified incubator at 37° C. After 48 hours, the cells were stimulated with dimethyl sulfoxide (DMSO), Compound (II), and/or Compound (III) (5 μM) (final concentration of DMSO was 0.02%) and co-cultured for another 48 hours. Cells that are activated by TGFβ1 (FUJIFILM Wako Pure Chemical Corporation), a fibroblast growth and activation factor, were stimulated with TGFβ1 (20 ng/ml) 72 hours after seeding, and after 48 hours, the cells were stimulated with dimethyl sulfoxide (DMSO), Compound (II), and/or Compound (III) (5 μM) (final concentration of DMSO was 0.02%) and co-cultured for another 48 hours. Thereafter, the cells were lysed using a lysis buffer (MACHEREY-NAGEL GmbH & Co. KG).
(§2) Quantitative real-time PCR analysis was performed in the same manner as in Example 5.
(In general: Quantitative PCR measures a nucleic acid by following its amplification.)

The subject of assay [2] is primary cultured human lung fibroblasts. Put plainly: Expression of marker genes for fibrosing in primary cultured human lung fibroblasts (quantitative real time PCR). The format is cell-based. Conditions: 48 hours. The method, then: as §1, §2
Assay [3] deals with primary cultured human renal fibroblasts. Put plainly: Expression of marker genes for fibrosing in primary cultured human renal fibroblasts (quantitative real time PCR). Type of assay: cell-based. Conditions: 48 hours. As for the experimental part:
as §1, §2

The test system of assay [4] is primary cultured human skin fibroblasts. Briefly: Expression of marker genes for fibrosing in primary cultured human skin fibroblasts (quantitative real time PCR). Type of assay: cell-based. Conditions: 48 hours. As for the experimental part:
Primary cultured human skin fibroblasts (Tokyo University School of Medicine) were seeded in 12-well tissue culture plates (7×10^4 cells/well) and cultured in Dulbecco's Modified Eagle's Medium (high glucose) together with 10% FBS (Fetal Bovine Serum) and 100× penicillin-streptomycin-glutamine (PSG) in a 5% CO2 humidified incubator at 37° C. After 48 hours, the cells were stimulated with dimethyl sulfoxide (DMSO), Compound (II), and Compound (III) (5 μM) (final concentration of DMSO was 0.02%) and co-cultured for another 48 hours. Cells activated with TGFβ1 (FUJIFILM Wako Pure Chemical Corporation) were stimulated with TGFβ1 (20 ng/ml) 72 hours after seeding, and after 48 hours, the cells were stimulated with dimethyl sulfoxide (DMSO), Compound (II), and Compound (III) (5 μM) (final concentration of DMSO was 0.02%) and co-cultured for another 48 hours. Thereafter, the cells were lysed using a lysis buffer (MACHEREY-NAGEL GmbH & Co. KG).
as §2

In assay [5] the test system is mouse model of liver fibrosis. Put plainly: Mouse model of liver fibrosis (thioacetamide): liver immunohistochemistry and quantitative real time PCR. The format is in vivo, C57BL/6J mice. Conditions: TAA mouse, 20 mg/kg subcutaneously every 24 hours for 14 days. The method, then: Seven-week-old C57BL/6J mice were purchased from CLEA Japan, Inc. (Tokyo, Japan). All animals were reared in a standard specific pathogen-free room in the animal facility of the Institute for Quantitative Biosciences, University of Tokyo. For a mouse model of liver fibrosis, thioacetamide (TAA) was administered together with drinking water (0.06% v/v), starting 7 weeks before the administration of the compound. After 7 weeks of rearing with TAA-containing water, a vehicle (200 μL of PBS, containing 5% DMSO) or 20 mg/kg (200 μL of PBS, containing 5% DMSO) of Compound (II) was subcutaneously administered every 24 hours for a total period of 14 days. The mice were sacrificed 24 hours after the last injection.
Liver tissue samples were fixed overnight at 4° C. with Zamboni's fixative (FUJIFILM Wako Pure Chemical Corporation) or Mildform (registered trademark) 10N (FUJIFILM Wako Pure Chemical Corporation). For immunofluorescence staining, the liver tissue fixed with Zamboni's fixative was washed with PBS, and the medium was replaced with a 30% (w/v) sucrose solution. Frozen tissue was prepared by embedding the tissue in a Tissue-Tek (registered trademark) O.C.T. compound (Sakura Finetek Japan) and freezing the resultant in liquid nitrogen. Liver cryosections (8 μm) were mounted on slide glasses, rehydrated, and autoclaved in Target Retrieval Solution (lx, Dako) at 90° C. for 20 min for epitope retrieval. The sections were blocked with 0.3% BSA/PBS for 1 hour at room temperature. After washing with PBS, αSMA (Dako), CollagenI (Bio-Rad Laboratories, Inc.), Ki67 (Santa Cruz), and Hoechst33342 (Sigma-Aldrich) were each added as a first antibody, and the mixture was reacted overnight at 4° C. On the next day, the sections were washed with PBS and then reacted with Invitrogen Alexa Fluor (theromo Fisher) as a second antibody. The section specimens were hermetically sealed and observed with a fluorescence microscope (Keyence BZ-X810). The range of positive CollagenI was quantified using Ratiocollagen I=Areacollagen I/Areatotal.
Total RNA of mouse liver tissue was extracted using NucleoSpin RNA Plus kit (Takara Bio) according to the product protocol. Purified RNA was reverse transcribed using High-Capacity cDNA RT Kits (Thermo Fisher Scientific) according to the product protocol. PCR was performed using TB Green Premix Ex Taq II (Takara Bio) and monitored with a LightCycler96 (Roche Life Science). The number of transcripts was standardized by the number of GAPDHs, which are housekeeping genes.

Assay [6] concerns quiescent hepatic stellate cell-like cells (qHSC-like cells). Briefly: Expression of marker genes for fibrosing in quiescent hepatic stellate cell-like cells derived from human iPS cells (quantitative real time PCR). Type of assay: cell-based. Conditions: 1 or 2 μM, 4 hours of incubation, FIG. 3. The method, then:
Quiescent hepatic stellate cell-like cells (qHSC-like cells) were induced by the methods described in Koui et al., Stem Cell Reports 2021, PCT/JP2020/006147, and PCT/JP2016/58411. qHSC-like cells derived from ACTA2-RFP […] iPS cells were seeded in a collagen-coated 12-well plate at a density of 7×10^4 cells/well in Stempro-34 SFM medium (Gibco medium, theromo Fisher) supplemented with Y27632 (10 μM) and 100×PSG. After 24 hours of culture, Compound (II) was dissolved in Stempro-34 SFM medium (100×PSG), and then the solution was added such that the final concentration of Compound (II) was 1 or 2 μM. After 4 hours of incubation, the cells were lysed, and total RNA was extracted using NucleoSpin RNA Plus kit (Takara Bio).
Total RNA derived from iPS cell-derived qHSC was extracted using NucleoSpin RNA Plus kit (Takara Bio) according to the product protocol. Purified RNA was reverse transcribed using High-Capacity cDNA RT Kits (Thermo Fisher Scientific) according to the product protocol. PCR was performed using TB Green Premix Ex Taq II (Takara Bio) and monitored with a LightCycler96 (Roche Life Science). The number of transcripts was standardized by the number of GAPDHs, which are housekeeping genes.

The next assay concerns LX-2 cells. Briefly: Immunostaining of αSMA and CollagenI in LX-2 cells. Type of assay: cell-based, human. Conditions: 3 μM, vs DMSO group, FIG. 2. The method, then:
LX-2 cells were cultured in the same manner as in Example 1, except that the concentration of Compound (II) was changed to 3 μM.
LX-2 cells were fixed in Mildform (registered trademark) 10N (FUJIFILM Wako Pure Chemical Corporation) at room temperature for 10 minutes and washed with PBS. Membranes were permeabilized using 0.2% Triton X-100. The cells were blocked at room temperature for one hour using 5% skim milk or 0.3% BSA/PBS. After washing with PBS, αSMA (Dako), CollagenI (Abcam), and Hoechst33342 (Sigma-Aldrich) were each added as a first antibody, and the mixture was reacted overnight at 4° C. On the next day, the cells were washed with PBS and then reacted with Invitrogen Alexa Fluor (theromo Fisher) as a second antibody. The cells were observed under a fluorescence microscope (Keyence BZ-X810).

Assay [7] relates to LX-2 cells (human hepatic stellate cells). Put plainly: Expression of marker genes for fibrosing in LX-2 cells (quantitative real time PCR). Type of assay: cell-based. Conditions: 5 μM, co-cultured 48 hours, vs DMSO, standardized by GAPDH, FIG. 1. The method, then: LX-2 cells (human hepatic stellate cells) (sigma-aldrich, reference document: Gut 2005, 54 (1), 142-151) were seeded in 12-well tissue culture plates (5×10^4 cells/well) and cultured in Dulbecco's Modified Eagle's Medium (high glucose) (Thermo Fisher Scientific) together with 10% FBS (Fetal Bovine Serum) and 100× penicillin-streptomycin-glutamine (PSG) in a 5% CO2 humidified incubator at 37° C. After 48 hours, the cells were stimulated with dimethyl sulfoxide (DMSO), Compound (II), and Compound (III) (5 μM) (final concentration of DMSO was 0.02%) and co-cultured for another 48 hours. Thereafter, the cells were lysed using a lysis buffer (MACHEREY-NAGEL GmbH & Co. KG).
Total RNA of LX-2 cells was extracted using NucleoSpin RNA Plus kit (Takara Bio) according to the product protocol. Purified RNA was reverse transcribed using High-Capacity cDNA RT Kits (Thermo Fisher Scientific) according to the product protocol. PCR was performed using TB Green Premix Ex Taq II (Takara Bio) and monitored with a LightCycler96 (Roche Life Science). The number of transcripts was standardized by the number of GAPDHs, which are housekeeping genes.

[8] abbreviates: not stimulated with TGFβ1, 5 μM, FIG. 11.
[9] abbreviates: stimulated with TGFβ1 (20 ng/ml), 5 μM, FIG. 12.
The mark [10] stands for this setting: not stimulated with TGFβ1, 5 μM, FIG. 9.
[11] abbreviates: stimulated with TGFβ1 (20 ng/ml), 5 μM, FIG. 10.
Where [12] appears, read: not stimulated with TGFβ1, 5 μM, FIG. 7.
[13] abbreviates: stimulated with TGFβ1 (20 ng/ml), 5 μM, FIG. 8.
[14] abbreviates: not stimulated with TGFβ1, 5 μM, FIG. 13.
The mark [15] stands for this setting: stimulated with TGFβ1 (20 ng/ml), 5 μM, FIG. 14.

Consider `CC(C)(C)c1cc(-c2ccc(Oc3ccccc3CCC(=O)OCCCOP(=O)(O)OCC(N)C(=O)O)cc2)cc(C(C)(C)C)c1` (stereo not drawn) [Compound (II)], for which the “expression levels of the marker genes for fibrosing (ACTA2, COL1A1, COL3A1)” value (“expression levels … (ACTA2, COL1A1, COL3A1)” below) in assay [1] (setting [8]), in assay [1] (setting [9]), in assay [2] (setting [10]), in assay [2] (setting [11]), in assay [3] (setting [12]) and in assay [3] (setting [13]) was “decreased” throughout. Further, the “expression levels … (ACTA2, COL1A1, COL3A1)” value in assay [4] (setting [14]), in assay [4] (setting [15]), in assay [6] and in assay [7] was “decreased” throughout. For the same compound, the “positive range of CollagenI in liver tissue sections (Area collagen I/Area total)” value in assay [5] (vs vehicle, FIG. 4) is on record as “small”. For the same compound, the “Ki67 staining of liver tissue sections (cell proliferation capability)” value in assay [5] (vs vehicle, FIG. 5) is recorded as “larger area stained in red”. Besides, the “expression of αSMA and CollagenI in liver tissue sections (immunostaining)” value in assay [5] (vs vehicle, FIG. 5) is “suppressed”. For the same compound, the “expression levels of the marker genes for fibrosing (COL1A1, COL3A1) in liver tissue” value in assay [5] (FIG. 6) is given as “decreased”. The “expression of αSMA and CollagenI (immunostaining)” value in the assay with LX-2 cells was “suppressed”.

`NC(COP(=O)(O)OCCCOC(=O)CCc1ccccc1Oc1ccc(-c2cc(-c3ccccc3)cc(-c3ccccc3)c2)cc1)C(=O)O` (stereo not drawn) [Compound (III)]: the “expression levels … (ACTA2, COL1A1, COL3A1)” value in assay [1] (setting [8]), in assay [1] (setting [9]), in assay [2] (setting [10]), in assay [2] (setting [11]), in assay [3] (setting [12]) and in assay [3] (setting [13]) was “decreased” throughout. The “expression levels … (ACTA2, COL1A1, COL3A1)” value in assay [4] (setting [14]), in assay [4] (setting [15]) and in assay [7] was “decreased” throughout.

(Values after patent publication US20250109154A1, “LYSOPHOSPHATIDYLSERINE ANALOGUE, AND LYSOPHOSPHATIDYLSERINE ANALOGUE-CONTAINING PHAMACEUTICAL COMPOSITION FOR TREATING OR PREVENTING FIBROSIS” (THE UNIVERSITY OF TOKYO, priority 2022, published 2025).)
